Results taken from PMC6277767, “Broad and Region-Specific Impacts of the Synthetic Cannabinoid CP 55,940 in Adolescent and Adult Female Mouse Brains” (Frontiers in Molecular Neuroscience, 2018).

Tested on: CD1 female mouse brain lipidome
Assay: Brain-region lipid levels (HPLC/MS/MS lipidomics) 2 h after single i.p. 3 mg/kg CP 55,940 vs vehicle
Type: in vivo
Method: The Bloomington Institutional Animal Care and Use Committee of Indiana University reviewed and approved the animal procedures. Female mice from the CD1 strain were utilized to match our study examining THC’s effects on the brain lipidome ([Leishman et al., 2018]). Mice were given a single i.p. injection of either 3 mg/kg CP or 1:1:18 cremophor:ethanol:saline vehicle (please refer to the section “3 mg/kg CP Is Relevant for Synthetic Cannabinoid Abuse and Has Stronger Effects on the Female Mouse Brain Lipidome During Adolescence” for a justification of dose and use of female mice). Three different age groups were given injections: PND 35 and PND 50 adolescents, and adult mice (PND 113). At least eight mice in each age group received CP and at least eight received vehicle. Matching the THC study time course ([Leishman et al., 2018]), mice were sacrificed via rapid decapitation 2 h after injection. Brains were immediately removed and flash-frozen in liquid nitrogen, and then stored at -80°C until dissections were performed. Brains were dissected on an ice-cold dissection plate into the following regions: STR, HIPP, CER, THAL, CTX, HYP, MID, and STEM. These abbreviations for these brain areas will be used exclusively when discussing the results generated by these specific dissections. Each dissected area was immediately placed in liquid nitrogen and then stored at -80°C until used for lipid extraction.
Tissue extracts were performed as previously described ([Bradshaw et al., 2006]; [Stuart et al., 2013]; [Raboune et al., 2014]; [Leishman et al., 2016a],[b], [2017], [2018]). First, samples were shock frozen in liquid nitrogen, weighed, and transferred to a centrifuge tube. The mass of the largest sample was multiplied by 50 to determine how many milliliters of HPLC-grade methanol (Fisher, Fair Lawn, NJ, United States) to add. Then, samples were spiked with 500 pmol deuterium-labeled NAGly (d8NAGly; Cayman Chemical, Ann Arbor, MI, United States). Samples were placed on ice in darkness for 2 h then individually homogenized and centrifuged at 19,000 × g for 20 min at 20°C. Supernatants were diluted with HPLC water (purified in house) to make a solution of 75% water, 25% supernatant. Lipids were partially purified on C18 solid phase extraction columns (Agilent, Palo Alto, CA, United States). A series of four elutions with 1.5 mL of 60%, 75%, 85%, and 100% methanol were collected ([Stuart et al., 2013]; [Leishman et al., 2016a],[b], [2018]).
As previously described ([Bradshaw et al., 2006]; [Tan et al., 2006]; [Smoum et al., 2010]; [Stuart et al., 2013]; [Tortoriello et al., 2013]; [Raboune et al., 2014]; [Leishman et al., 2016a],[b], [2017], [2018]), samples were analyzed using an Applied Biosystems API 3000 triple quadrupole mass spectrometer with electrospray ionization (Foster City, CA, United States). Using an Agilent XDB-C18 reversed phase analytical column and optimized mobile phase gradients, 20 μL from each elution were chromatographed. Two Shimadzu 10ADvp pumps (Columbia, MD, United States) provided the pressure for gradient elution. Mobile phase A: 20% methanol, 80% water (v/v) and 1 mM ammonium acetate (Sigma, St. Louis, MO, United States). Mobile phase B: 100% methanol, 1 mM ammonium acetate. Every method run began with 0% mobile phase B, reached 100% mobile phase B flowing at 0.2 mL/min, and gradually returned to 0% mobile phase B.
This screening library will be referred to as the lipidome when discussing data from this study. HPLC/MS/MS data were analyzed using Analyst software (Applied Biosystems) ([Bradshaw et al., 2006]; [Tan et al., 2006]; [Stuart et al., 2013]; [Tortoriello et al., 2013]; [Raboune et al., 2014]; [Leishman et al., 2016a],[b], [2017], [2018]). Chromatograms (Supplementary Figure 3) were generated by determining the retention time of analytes from the analytical column with a [M-1] or [M+1] parent peak and a fragmentation peak corresponding to the programmed values. […]

## CCCCCCC(C)(C)c1ccc([C@@H]2C[C@H](O)CC[C@H]2CCCO)c(O)c1 [CP 55,940]
PND 35 HIPP
  PGF2α level vs vehicle: ↑ (1-1.49 times higher than vehicle)
PND 35 HIPP, 65 detected
  number of lipids changed: 39
PND 35 HYP
  2-arachidonoyl glycerol level vs vehicle: ↓↓↓ (2-2.99 times lower than vehicle)
  2-linoleoyl glycerol level vs vehicle: ↓↓ (1.50-1.99 times lower than vehicle)
  2-oleoyl glycerol level vs vehicle: ↓↓ (1.50-1.99 times lower than vehicle)
  2-palmitoyl glycerol level vs vehicle: ↑ (1-1.49 times higher than vehicle)
  Arachidonic acid level vs vehicle: ↓ (1-1.49 times lower than vehicle)
  Linoleic acid level vs vehicle: ↓ (1-1.49 times lower than vehicle)
  N-arachidonoyl GABA level vs vehicle: ↓ (1-1.49 times lower than vehicle)
  N-arachidonoyl alanine level vs vehicle: ↓↓ (1.50-1.99 times lower than vehicle)
  N-arachidonoyl ethanolamine level vs vehicle: ↓ (1-1.49 times lower than vehicle)
  N-arachidonoyl glycine level vs vehicle: ↓ (1-1.49 times lower than vehicle)
  N-arachidonoyl phenylalanine level vs vehicle: ↓ (1-1.49 times lower than vehicle)
  N-arachidonoyl taurine level vs vehicle: ↓ (1-1.49 times lower than vehicle)
  N-docosahexaenoyl GABA level vs vehicle: ↓ (1-1.49 times lower than vehicle)
  N-docosahexaenoyl ethanolamine level vs vehicle: ↓↓ (1.50-1.99 times lower than vehicle)
  N-linoleoyl alanine level vs vehicle: ↓ (1-1.49 times lower than vehicle)
  N-oleoyl GABA level vs vehicle: ↓ (1-1.49 times lower than vehicle)
  N-oleoyl alanine level vs vehicle: ↓ (1-1.49 times lower than vehicle)
  N-oleoyl ethanolamine level vs vehicle: ↓↓ (1.50-1.99 times lower than vehicle)
  N-palmitoyl ethanolamine level vs vehicle: ↓↓ (1.50-1.99 times lower than vehicle)
  N-palmitoyl leucine level vs vehicle: ↑ (1-1.49 times higher than vehicle)
  N-stearoyl ethanolamine level vs vehicle: ↓ (1-1.49 times lower than vehicle)
  Oleic Acid level vs vehicle: ↓ (1-1.49 times lower than vehicle)
  PGE2 level vs vehicle: ↓ (1-1.49 times lower than vehicle)
  PGF2α level vs vehicle: ↑ (1-1.49 times higher than vehicle)
  phosphoLEA level vs vehicle: ↑ (1-1.49 times higher than vehicle)
PND 35 MID
  2-linoleoyl glycerol level vs vehicle: ↓ (1-1.49 times lower than vehicle)
  6-ketoPGF1α level vs vehicle: ↓ (1-1.49 times lower than vehicle)
  Arachidonic acid level vs vehicle: ↓ (1-1.49 times lower than vehicle)
  N- stearoyl valine level vs vehicle: ↑ (1-1.49 times higher than vehicle)
  N-arachidonoyl GABA level vs vehicle: ↓ (1-1.49 times lower than vehicle)
  N-arachidonoyl alanine level vs vehicle: ↓ (1-1.49 times lower than vehicle)
  N-arachidonoyl glycine level vs vehicle: ↓ (1-1.49 times lower than vehicle)
  N-arachidonoyl serine level vs vehicle: ↓ (1-1.49 times lower than vehicle)
  N-arachidonoyl taurine level vs vehicle: ↓ (1-1.49 times lower than vehicle)
  N-arachidonoyl tyrosine level vs vehicle: ↓ (1-1.49 times lower than vehicle)
  N-docosahexaenoyl GABA level vs vehicle: ↓ (1-1.49 times lower than vehicle)
  N-docosahexaenoyl alanine level vs vehicle: ↓ (1-1.49 times lower than vehicle)
  N-docosahexaenoyl glycine level vs vehicle: ↓ (1-1.49 times lower than vehicle)
  N-docosahexaenoyl leucine level vs vehicle: ↑ (1-1.49 times higher than vehicle)
  N-docosahexaenoyl methionine level vs vehicle: ↓ (1-1.49 times lower than vehicle)
  N-docosahexaenoyl serine level vs vehicle: ↓ (1-1.49 times lower than vehicle)
  N-docosahexaenoyl tyrosine level vs vehicle: ↓ (1-1.49 times lower than vehicle)
  N-docosahexaenoyl valine level vs vehicle: ↑↑ (1.50-1.99 times higher than vehicle)
  N-linoleoyl ethanolamine level vs vehicle: ↑ (1-1.49 times higher than vehicle)
  N-oleoyl GABA level vs vehicle: ↓ (1-1.49 times lower than vehicle)
  N-oleoyl ethanolamine level vs vehicle: ↓ (1-1.49 times lower than vehicle)
  N-oleoyl phenylalanine level vs vehicle: ↑ (1-1.49 times higher than vehicle)
  N-oleoyl valine level vs vehicle: ↑ (1-1.49 times higher than vehicle)
  N-palmitoyl leucine level vs vehicle: ↑ (1-1.49 times higher than vehicle)
  N-palmitoyl phenylalanine level vs vehicle: ↑ (1-1.49 times higher than vehicle)
  N-palmitoyl valine level vs vehicle: ↑↑ (1.50-1.99 times higher than vehicle)
  N-stearoyl methionine level vs vehicle: ↑ (1-1.49 times higher than vehicle)
  N-stearoyl tyrosine level vs vehicle: ↓ (1-1.49 times lower than vehicle)
  PGE2 level vs vehicle: ↑ (1-1.49 times higher than vehicle)
  PGF2α level vs vehicle: ↑ (1-1.49 times higher than vehicle)
  phosphoLEA level vs vehicle: ↑ (1-1.49 times higher than vehicle)
PND 35 STEM
  2-arachidonoyl glycerol level vs vehicle: ↓ (1-1.49 times lower than vehicle)
  2-linoleoyl glycerol level vs vehicle: ↓ (1-1.49 times lower than vehicle)
  N- stearoyl valine level vs vehicle: ↑ (1-1.49 times higher than vehicle)
  N-arachidonoyl GABA level vs vehicle: ↓ (1-1.49 times lower than vehicle)
  N-arachidonoyl taurine level vs vehicle: ↓ (1-1.49 times lower than vehicle)
  N-docosahexaenoyl leucine level vs vehicle: ↑ (1-1.49 times higher than vehicle)
  N-docosahexaenoyl valine level vs vehicle: ↑ (1-1.49 times higher than vehicle)
  N-oleoyl leucine level vs vehicle: ↑ (1-1.49 times higher than vehicle)
  N-oleoyl proline level vs vehicle: ↑ (1-1.49 times higher than vehicle)
  N-oleoyl valine level vs vehicle: ↑ (1-1.49 times higher than vehicle)
  N-palmitoyl leucine level vs vehicle: ↑ (1-1.49 times higher than vehicle)
  N-palmitoyl phenylalanine level vs vehicle: ↑ (1-1.49 times higher than vehicle)
  N-palmitoyl proline level vs vehicle: ↑ (1-1.49 times higher than vehicle)
  N-palmitoyl tryptophan level vs vehicle: ↓ (1-1.49 times lower than vehicle)
  N-palmitoyl valine level vs vehicle: ↑ (1-1.49 times higher than vehicle)
  PGE2 level vs vehicle: ↑ (1-1.49 times higher than vehicle)
PND 35 STEM, 70 detected
  number of lipids changed: 16
PND 35 STR
  2-arachidonoyl glycerol level vs vehicle: ↓ (1-1.49 times lower than vehicle)
  2-linoleoyl glycerol level vs vehicle: ↓↓ (1.50-1.99 times lower than vehicle)
  2-oleoyl glycerol level vs vehicle: ↓ (1-1.49 times lower than vehicle)
  N- stearoyl valine level vs vehicle: ↑ (1-1.49 times higher than vehicle)
  N-arachidonoyl GABA level vs vehicle: ↓↓ (1.50-1.99 times lower than vehicle)
  N-arachidonoyl alanine level vs vehicle: ↓ (1-1.49 times lower than vehicle)
  N-arachidonoyl glycine level vs vehicle: ↓ (1-1.49 times lower than vehicle)
  N-arachidonoyl phenylalanine level vs vehicle: ↓ (1-1.49 times lower than vehicle)
  N-arachidonoyl serine level vs vehicle: ↓↓ (1.50-1.99 times lower than vehicle)
  N-arachidonoyl taurine level vs vehicle: ↓ (1-1.49 times lower than vehicle)
  N-arachidonoyl tyrosine level vs vehicle: ↓ (1-1.49 times lower than vehicle)
  N-docosahexaenoyl GABA level vs vehicle: ↓ (1-1.49 times lower than vehicle)
  N-docosahexaenoyl alanine level vs vehicle: ↓ (1-1.49 times lower than vehicle)
  N-docosahexaenoyl ethanolamine level vs vehicle: ↓ (1-1.49 times lower than vehicle)
  N-docosahexaenoyl leucine level vs vehicle: ↑ (1-1.49 times higher than vehicle)
  N-docosahexaenoyl serine level vs vehicle: ↓ (1-1.49 times lower than vehicle)
  N-oleoyl GABA level vs vehicle: ↓ (1-1.49 times lower than vehicle)
  N-oleoyl alanine level vs vehicle: ↓ (1-1.49 times lower than vehicle)
  N-oleoyl ethanolamine level vs vehicle: ↓↓ (1.50-1.99 times lower than vehicle)
  N-oleoyl glycine level vs vehicle: ↓ (1-1.49 times lower than vehicle)
  N-palmitoyl ethanolamine level vs vehicle: ↓ (1-1.49 times lower than vehicle)
  N-palmitoyl leucine level vs vehicle: ↑ (1-1.49 times higher than vehicle)
  N-palmitoyl valine level vs vehicle: ↑↑ (1.50-1.99 times higher than vehicle)
  N-stearoyl alanine level vs vehicle: ↓ (1-1.49 times lower than vehicle)
  N-stearoyl leucine level vs vehicle: ↓ (1-1.49 times lower than vehicle)
  N-stearoyl serine level vs vehicle: ↓ (1-1.49 times lower than vehicle)
  PGE2 level vs vehicle: ↑ (1-1.49 times higher than vehicle)
